Experimental data: patent US11708348B2, “Protease inhibitors for treatment of coronavirus infections” (The Scripps Research Institute, priority 2021, dated 2023)
Read-outs that look alike come from different tables or passages of the source.

System: SARS-CoV-2 strain USA-WA1/2020
Experiment: microbe, parasite or virus in culture
Format: cell-based
Settings: Severe acute respiratory syndrome coronavirus 2, HeLa-ACE2, 24 h, read-out: EC50, uM (Hela)
[1] = HeLa-ACE2 cells, SARS-CoV-2 infection, 24 h, class symbols
[2] = HeLa-ACE2 cells, SARS-CoV-2 infection, 24 h, bound printed in cell

| Structure (SMILES) | EC50 [1] [µM] | other results |
| --- | --- | --- |
| O=C(N[C@@H](C[C@@H]1CCNC1=O)C(=O)COC(F)(F)F)C1[C@H]2CCC[C@H]2CN1C(=O)[C@H]1CCCO1 (stereo partly drawn) [Compound 299, (1S,3aR,6aS)-N-((S)-3-oxo-1-((S)-2-oxopyrrolidin-3-yl)-4-(trifluoromethoxy)butan-2-yl)-2-((R)-tetrahydrofuran-2-carbonyl)octahydro-cyclopenta[c]pyrrole-l-carboxamide] | 0.05 to 0.2 |  |
| O=C1NCC[C@H]1C[C@H](NC(=O)[C@H](CC1CC1)NC(=O)[C@H]1CCCO1)C(=O)COC(F)(F)F [Compound 300, (R)-N-((S)-3-cyclopropyl-1-oxo-1-(((S)-3-oxo-1-((S)-2-oxopyrrolidin-3-yl)-4-(trifluoromethoxy)butan-2-yl)amino)propan-2-yl)tetrahydrofuran-2-carboxamide] | < 0.05 |  |
| CC(C)(C)C[C@H](NC(=O)[C@H]1CCCO1)C(=O)N[C@@H](C[C@@H]1CCNC1=O)C(=O)COC(F)(F)F [Compound 301, (R)-N-((S)-4,4-dimethyl-1-oxo-1-(((S)-3-oxo-1-((S)-2-oxopyrrolidin-3-yl)-4-(trifluoromethoxy)butan-2-yl)amino)pentan-2-yl)tetrahydrofuran-2-carboxamide] | < 0.05 |  |
| O=C1NCC[C@H]1C[C@H](NC(=O)[C@@H]1C[C@H]2C[C@H]2N1C(=O)[C@H]1CCCO1)C(=O)COC(F)(F)F [Compound 303, (1R,3S,5R)-N-((S)-3-oxo-1-((S)-2-oxopyrrolidin-3-yl)-4-(trifluoromethoxy)butan-2-yl)-2-((R)-tetrahydrofuran-2-carbonyl)-2-azabicyclo[3.1.0]-hexane-3-carboxamide] |  | EC50 [2]: > 1 µM |
| O=C1NCC[C@H]1C[C@H](NC(=O)[C@@H]1C[C@H]2C[C@H]2N1C(=O)[C@@H]1CCCO1)C(=O)COC(F)(F)F [Compound 304, (1R,3S,5R)-N-(3-oxo-1-((S)-2-oxopyrrolidin-3-yl)-4-(trifluoromethoxy)butan-2-yl)-2-((S)-tetrahydrofuran-2-carbonyl)-2-azabicyclo[3.1.0]-hexane-3-carboxamide] |  | EC50 [2]: > 1 µM |
| O=C1NCC[C@H]1C[C@H](NC(=O)[C@@H]1CC2(CC2)CN1C(=O)[C@H]1CCCO1)C(=O)COC(F)(F)F [Compound 305, (S)-N-((S)-3-oxo-1-((S)-2-oxopyrrolidin-3-yl)-4-(trifluoromethoxy)butan-2-yl)-5-((R)-tetrahydrofuran-2-carbonyl)-5-azaspiro[2.4]heptane-6-carboxamide] | 0.2 to 0.5 |  |
| CC1(C)[C@@H]2[C@@H](C(=O)N[C@@H](C[C@@H]3CCNC3=O)C(=O)COC(F)(F)F)N(C(=O)[C@H]3COCCO3)C[C@@H]21 [Compound 306, (1R,2S,5S)-3-((R)-1,4-dioxane-2-carbonyl)-6,6-dimethyl-N-((S)-3-oxo-1-((S)-2-oxopyrrolidin-3-yl)-4-(trifluoromethoxy)butan-2-yl)-3-azabicyclo[3.1.0]-hexane-2-carboxamide] | 0.05 to 0.2 |  |
| CC1(C)[C@@H]2[C@@H](C(=O)N[C@@H](C[C@@H]3CCNC3=O)C(=O)COC(F)(F)F)N(C(=O)[C@@H]3COCCO3)C[C@@H]21 [Compound 307, (1R,2S,5S)-3-((S)-1,4-dioxane-2-carbonyl)-6,6-dimethyl-N-((S)-3-oxo-1-((S)-2-oxopyrrolidin-3-yl)-4-(trifluoromethoxy)butan-2-yl)-3-azabicyclo[3.1.0]hexane-2-carboxamide] | 0.2 to 0.5 |  |
| O=C1NCC[C@H]1C[C@H](NC(=O)[C@@H]1[C@H]2CCC[C@H]2CN1C(=O)C12CCC(CC1)O2)C(=O)COC(F)(F)F [Compound 308, (1S,3aR,6aS)-2-(7-oxabicyclo[2.2.1]-heptane-1-carbonyl)-N-((S)-3-oxo-1-((S)-2-oxopyrrolidin-3-yl)-4-(trifluoromethoxy)butan-2-yl)octahydrocyclo-penta[c]pyrrole-1-carboxamide] | 0.05 to 0.2 |  |
| CC(C)C[C@H](NC(=O)C12CCC(CC1)O2)C(=O)N[C@@H](C[C@@H]1CCNC1=O)C(=O)COC(F)(F)F [Compound 309, N-((S)-4-methyl-1-oxo-1-(((S)-3-oxo-1-((S)-2-oxopyrrolidin-3-yl)-4-(trifluoromethoxy)butan-2-yl)amino)pentan-2-yl)-7-oxabicyclo [2.2.1]-heptane-1-carboxamide] | < 0.05 |  |
| CC1(C(=O)N2C[C@@H]3CCC[C@@H]3[C@H]2C(=O)N[C@@H](C[C@@H]2CCNC2=O)C(=O)COC(F)(F)F)CCCO1 (stereo partly drawn) [Compound 310, (1S,3aR,6aS)-2-(2-methyltetrahydrofuran-2-carbonyl)-N-((S)-3-oxo-1-((S)-2-oxopyrrolidin-3-yl)-4-(trifluoromethoxy)butan-2-yl)octahydro-cyclopenta[c]pyrrole-1-carboxamide] |  | EC50 [2]: > 1 µM |
| CC12COC(C(=O)N3C[C@@H]4CCC[C@@H]4[C@H]3C(=O)N[C@@H](C[C@@H]3CCNC3=O)C(=O)COC(F)(F)F)(C1)C2 [Compound 312, (1S,3aR,6aS)-2-(4-methyl-2-oxabicyclo-[2.1.1]hexane-1-carbonyl)-N-((S)-3-oxo-1-((S)-2-oxopyrrolidin-3-yl)-4-(trifluoromethoxy)butan-2-yl)octahydrocyclo-penta[c]pyrrole-1-carboxamide] | 0.05 to 0.2 |  |
| CC(C)C[C@H](NC(=O)C12CC(C)(CO1)C2)C(=O)N[C@@H](C[C@@H]1CCNC1=O)C(=O)COC(F)(F)F [Compound 313, 4-methyl-N-((S)-4-methyl-1-oxo-1-(((S)-3-oxo-1-((S)-2-oxopyrrolidin-3-yl)-4-(trifluoromethoxy)butan-2-yl)amino)pentan-2-yl)-2-oxabicyclo-[2.1.1]hexane-1-carboxamide] | 0.05 to 0.2 |  |
| CC(C)C[C@H](NC(=O)C12CC(NC(=O)C(F)(F)F)(CO1)C2)C(=O)N[C@@H](C[C@@H]1CCNC1=O)C(=O)COC(F)(F)F [Compound 314, N-((S)-4-methyl-1-oxo-1-(((S)-3-oxo-1-((S)-2-oxopyrrolidin-3-yl)-4-(trifluoromethoxy)butan-2-yl)amino)pentan-2-yl)-4-(2,2,2-trifluoroacetamido)-2-oxabicyclo[2.1.1]-hexane-1-carboxamide] |  | EC50: 0.2 to 0.5 µM |
| O=C1NCC[C@H]1C[C@H](NC(=O)[C@@H]1[C@H]2CCC[C@H]2CN1C(=O)C12CC(C(F)(F)F)(CO1)C2)C(=O)COC(F)(F)F [Compound 315, (1S,3aR,6aS)-N-((S)-3-oxo-1-((S)-2-oxopyrrolidin-3-yl)-4-(trifluoromethoxy)butan-2-yl)-2-(4-(trifluoromethyl)-2-oxabicyclo[2.1.1]-hexane-1-carbonyl)-octahydrocyclopenta-[c]pyrrole-1-carboxamide] | < 0.05 |  |
| CC(C)C[C@H](NC(=O)C12CC(C(F)(F)F)(CO1)C2)C(=O)N[C@@H](C[C@@H]1CCNC1=O)C(=O)COC(F)(F)F [Compound 316, N-((S)-4-methyl-1-oxo-1-(((S)-3-oxo-1-((S)-2-oxopyrrolidin-3-yl)-4-(trifluoromethoxy)butan-2-yl)amino)pentan-2-yl)-4-(trifluoromethyl)-2-oxabicyclo-[2.1.1]hexane-1-carboxamide] | < 0.05 |  |
| O=C1NCC[C@H]1C[C@H](NC(=O)[C@@H]1CC2(CC2)CN1C(=O)C12CC(C(F)(F)F)(CO1)C2)C(=O)COC(F)(F)F [Compound 317, (6S)—N-[(2S)-3-oxo-1-[(3S)-2-oxopyrrolidin-3-yl]-4-(trifluoromethoxy)butan-2-yl]-5-[4-(trifluoromethyl)-2-oxabicyclo[2.1.1]hexane-1-carbonyl]-5-azaspiro[2.4]heptane-6-carboxamide] | < 0.05 |  |
| CC1(C)[C@@H]2[C@@H](C(=O)N[C@@H](C[C@@H]3CCNC3=O)C(=O)COC(F)(F)F)N(C(=O)C34CC(C(F)(F)F)(CO3)C4)C[C@@H]21 [Compound 318, (1R,2S,5S)-6,6-dimethyl-N-((S)-3-oxo-1-((S)-2-oxopyrrolidin-3-yl)-4-(trifluoromethoxy)butan-2-yl)-3-(4-(trifluoromethyl)-2-oxabicyclo[2.1.1]-hexane-1-carbonyl)-3-azabicyclo[3.1.0]-hexane-2-carboxamide] | 0.05 to 0.2 |  |
| CC(C)C[C@H](NC(=O)C12CC(C(F)F)(CO1)C2)C(=O)N[C@@H](C[C@@H]1CCNC1=O)C(=O)COC(F)(F)F [Compound 319, 4-(difluoromethyl)-N-((S)-4-methyl-1-oxo-1-(((S)-3-oxo-1-((S)-2-oxopyrrolidin-3-yl)-4-(trifluoromethoxy)butan-2-yl)amino)pentan-2-yl)-2-oxabicyclo-[2.1.1]hexane-1-carboxamide] | < 0.05 |  |
| O=C1NCC[C@H]1C[C@H](NC(=O)[C@@H]1CC2(CC2)CN1C(=O)C12CC(C(F)F)(CO1)C2)C(=O)COC(F)(F)F [Compound 320, (S)-5-(4-(difluoromethyl)-2-oxabicyclo[2.1.1]-hexane-1-carbonyl)-N-((S)-3-oxo-1-((S)-2-oxopyrrolidin-3-yl)-4-(trifluoromethoxy)butan-2-yl)-5-azaspiro[2.4]-heptane-6-carboxamide] | 0.2 to 0.5 |  |
| O=C1NCC[C@H]1C[C@H](NC(=O)[C@@H]1[C@H]2CCC[C@H]2CN1C(=O)C12CC(C(F)F)(CO1)C2)C(=O)COC(F)(F)F [Compound 321, (1S,3aR,6aS)-2-(4-(difluoromethyl)-2-oxabicyclo[2.1.1]hexane-1-carbonyl)-N-((S)-3-oxo-1-((S)-2-oxopyrrolidin-3-yl)-4-(trifluoromethoxy)butan-2-yl)octahydrocyclopenta-[c]pyrrole-1-carboxamide] | 0.05 to 0.2 |  |
| CC1(C)[C@@H]2[C@@H](C(=O)N[C@@H](C[C@@H]3CCNC3=O)C(=O)COC(F)(F)F)N(C(=O)C34CC(C(F)F)(CO3)C4)C[C@@H]21 [Compound 322, (1R,2S,5S)-3-(4-(difluoromethyl)-2-oxabicyclo[2.1.1]-hexane-1-carbonyl)-6,6-dimethyl-N-((S)-3-oxo-1-((S)-2-oxopyrrolidin-3-yl)-4-(trifluoromethoxy)butan-2-yl)-3-azabicyclo-[3.1.0]hexane-2-carboxamide] | 0.05 to 0.2 |  |
